Legend:
AmGSTF1 [1] = assay: Isothermal titration calorimetry; type: binding, Alopecurus myosuroides
Description: Coot and reciprocal space refinement using Refmac. Further experimental detail is summarised in
Molecular docking was performed using the GOLD package with CHEMPLP as the target fitness function
12. The structure of the AmGSTF1 in the tetragonal unit cell with both loops in their closed conformation
was used as a starting model for docking. The ligand (GS-NBF) was removed from the binding site. The
search space was defined by the position of the ligand in the cavity with a margin of 10 and 15 Å,
respectively. The ligands were built with Avogadro [XX]. In each case, the starting geometry minimized
using the MMFF94 forcefield [xx]. Each ligand was docked with 30 independent genetic algorithm using
the diverse solution settings in order to explore a maximum parameter space.
Isothermal Titration Calorimetry
AmGSTF1 was dialysed into HEPES buffer (pH 7.6) overnight at 3 °C and the concentration adjusted to
10 µM in a volume of 3 mL. The activity of the enzyme was calculated prior to use according to the
standard CDNB biochemical assay. A solution of the desired ligand (≥ 10 x protein concentration, 200
µL) was prepared in the same HEPES buffer as above. All samples were degassed for 5 minutes prior to
use using a thermovac at 24 °C. AmGSTF1 was incubated in the cell and the ligand in the syringe, […]
experiment run to completion or until no more titrant was available. The data obtained was analysed […]

wildtype AmGSTF1 = type: biochemical, Alopecurus myosuroides; conditions: 100 µM, 60 min at 20 °C, diluted 1:100, activity towards CDNB
[2] = tested on: HS black-grass (Rothamsted); assay: Petri-dish seedling assay with pendimethalin; type: in vivo, Alopecurus myosuroides
MHR black-grass (Peldon) = assay: Petri-dish seedling assay with pendimethalin; type: in vivo, Alopecurus myosuroides; conditions: for Percentage of normal shoot 14 d after treatment: Peldon-MHR
AmGSTF1 [3] = assay: CDNB assay: inhibition of AmGSTF1-catalysed glutathionylation of CDNB; type: biochemical, Alopecurus myosuroides; conditions: for CDNB Assay % Inhibition: three replicate measurements
AmGSTF1 [4] = assay: Ligand fishing with strep-tagged AmGSTF1 immobilised on StrepTactin column; type: binding, Alopecurus myosuroides; conditions: ligand cocktail, each at 100 µM
[5] = tested on: MHR in black-grass plants; assay: Preliminary spray trial with pinoxaden; type: in vivo, Alopecurus myosuroides; conditions: black-grass plants exposed to the herbicide pinoxaden
wheat = assay: Preliminary spray trial, companion crop phytotoxicity; type: in vivo
[6] = Aqueous solubility (qualitative); type: physicochemical
AmGSTF1 [7] = assay: Thermal shift assay; type: binding, Alopecurus myosuroides; conditions: difference in melting temperature compared to no ligand
MHR black-grass plants = assay: Spray assay on three-leaf stage plants with pendimethalin; type: in vivo, Alopecurus myosuroides; conditions: three-leaf stage (BBCH 13); 70 μM compound 55, 24 h prior to spray with 35 μM pendimethalin
AtGSTF8 = assay: CDNB assay on AtGSTF8 (selectivity); type: biochemical, A. thaliana
Description: Having established flavonoids as AmGSTF1 ligands with the potential to reverse the MHR phenotype, the scope for optimising their activity, selectivity, and physicochemical profile using synthetic modifications was explored. Using 5,7-dihydroxyflavone (chrysin, 2) as precursor (Fig. 3a), the synthesis of flavonoid derivatives with simple A-ring modifications were undertaken. Each compound was then assessed for its binding to the protein target using both thermal shift assays and by the inhibition of enzyme activity toward CDNB (Table S4 ^‡). The 2-methylchromen-4-one derivative 12 (Table S4; ^‡ entry 11) was synthesised to assess the effect of replacement of the aryl ring at the 2-position (B-ring) with a smaller group. […] Alternative 2-substituents, including amides 16, cyclic amines 17 and (hetero)arenes 18, each introduced from the corresponding carboxylic acid 13, thioether 14 and chloride 15 using standard acylation, SNAr and Pd-catalysed cross-coupling reactions (Fig. 3b). […] However, for these compounds, the assessment of activity was difficult due to their low solubility in aqueous solutions. […] To confirm if the binding observed with these synthetic analogues was specific to AmGSTF1, as determined by the inhibition of CDNB activity, the effect of this flavonoid series on an alternative well described phi class GST from A. thaliana (AtGSTF8), was investigated. […]

[8] = 70 uM compound 55 for 24 h prior to 5 ppm pendimethalin

Row | SMILES | CDNB Assay % Inhibition (AmGSTF1 [3]; 10 µM compound) [%] | CDNB Assay % Inhibition (AmGSTF1 [3]; 100 µM compound) [%] | Solubility in aqueous solutions (in words) [6] | Thermal Shift Assay ∆Tm (AmGSTF1 [7]; 1 µM) | Thermal Shift Assay ∆Tm (AmGSTF1 [7]; 10 µM) | Thermal Shift Assay ∆Tm (AmGSTF1 [7]; 100 µM) | CDNB Assay % Inhibition (AmGSTF1 [3]; 1 µM compound) [%] | also measured
1 | NC(CCC(=O)NC(CSc1ccc([N+](=O)[O-])c2nonc12)C(=O)NCC(=O)O)C(=O)O (centres unmarked) [NBD-SG] | – | – | – | – | – | – | – | Binding to AmGSTF1 by ITC (AmGSTF1 [1]): binding to AmGSTF1 confirmed; Inhibition vs. DMSO control (wildtype AmGSTF1): 43%; Mean specific activity (wildtype AmGSTF1; mean ± SD, n = 3): 11.2 ± 1.1 nmol s-1 mg-1 protein
2 | CCC(CC)Nc1c([N+](=O)[O-])cc(C)c(C)c1[N+](=O)[O-] [Pendimethalin, pendimethalin, reference compound] | – | – | – | – | – | – | – | Percentage of normal shoot 14 d after treatment ([2]; 5 ppm pendimethalin alone): 52%; Percentage of normal shoot 14 d after treatment (MHR black-grass (Peldon); 5 ppm pendimethalin alone): 82%
3 | O=c1cc(-c2ccc(O)cc2)oc2cc(O)cc(O)c12 [compound 1, apigenin] | 71 | 87 | – | – | – | – | – | Binding/retention by immobilised AmGSTF1 (AmGSTF1 [4]): selectively retained and bound; Synergistic effect counteracting MHR [5]: clear synergistic effect; Phytotoxic effect in companion crop (wheat): no adverse phytotoxic effect
4 | O=c1c(O)c(-c2ccc(O)c(O)c2)oc2cc(O)cc(O)c12 [compound 3, quercetin, reference compound] | 44 | 94 | high solubility | – | – | – | – | –
5 | COc1cc(OC)c2c(=O)cc(-c3nccs3)oc2c1 [compound 23] | 23 | 83 | increased solubility | -0.40 | -0.47 | -0.50 | – | –
6 | CCCCCCCCCCC(Oc1cc(OC)cc2oc(-c3ccccc3)cc(=O)c12)C(=O)O (centres unmarked) [compound 45] | 99 | 100 | – | 0.30 | 0.23 | 1.17 | 71 | –
7 | CCCCCCCCCCCCC(Oc1cc(OC)cc2oc(-c3ccccc3)cc(=O)c12)C(=O)O (centres unmarked) [compound 46] | 90 | 100 | – | 0.20 | 0.73 | 1.43 | 75 | –
8 | Br.COC(=O)C(CCCCN)Oc1cc(OC)cc2oc(-c3ccccc3)cc(=O)c12 (centres unmarked) [compound 51] | 25 | – | – | 0.20 | 0.43 | 0.57 | – | –
9 | CCCCC(=O)NCCCCC(Oc1cc(OC)cc2oc(-c3ccccc3)cc(=O)c12)C(=O)O (centres unmarked) [compound 52] | 39 | – | – | 0.13 | 0.30 | 1.10 | 6 | –
10 | CCCCCCCCCCC(Oc1cc(O)cc2oc(-c3ccc(O)c(O)c3)c(O)c(=O)c12)C(=O)O (centres unmarked) [compound 55] | 96 | 100 | sufficient soluble | 0.20 | 2.17 | 1.10 | 70 | Pendimethalin resistance in established MHR plants (MHR black-grass plants): reversed pendimethalin resistance; Percentage of normal shoot 14 d after treatment [2, 8]: 50%; Inhibitory activity toward AmGSTF1 in the CDNB assay (in words) (AmGSTF1 [3]): excellent inhibitory activity; Resistance to pendimethalin in MHR seedlings (MHR black-grass (Peldon); 70 μM compound 55, 24 h prior to 5 ppm pendimethalin, compared to untreated seedlings): reduced; Percentage of normal shoot 14 d after treatment (MHR black-grass (Peldon); [8]): 66%; Selectivity toward AmGSTF1 as compared to AtGSTF8 (AtGSTF8): good selectivity

— paper PMC8564858, “Flavonoid-based inhibitors of the Phi-class glutathione transferase from black-grass to combat multiple herbicide resistance” (Organic & Biomolecular Chemistry, 2021)
